In patent US8933022B2, “Methods and compositions for the treatment and prevention Hypoglycemia and related disorders” (JDS Therapeutics, LLC, priority 2011, dated 2015):
Marks after values point to notes of the source that are not given here.

Key:
[1] = test system: OCT-1 (organic cation transporter 1); test: Kidney OCT-1 levels in type-1 diabetes induced rats; format: in vivo, Wistar rats; details: bands, STZ rats, n = 7; control = 100.00 (percentage of control)
[2] = Serum and brain chromium in type-1 diabetes induced rats; details: STZ rats, n = 7; footnote: daily for 8 weeks
Protocol: (§1) Forty-two Wistar rats were assigned to one of 6 experimental groups: 1) positive control: rats injected with saline 2) type-1 diabetes group: rats injected with streptozotocin (STZ, 65 mg/kg i.p.) to damage beta cells (n=35). Diabetic rats were then administered with a) none, b) Zn alone (6.23 μg ZnO), c) Cr alone (47.7 μg Cr-histidinate), d) Zn-insulin (6.23 μg ZnO+3 IU Ins/100 g BW), or e) Cr-insulin (47.7 μg Cr-histidinate+3 IU Ins/100 g BW), daily for 26 days (n=7 per subgroup). Body weights were measured at the beginning and end of the experiment.
(§2) Blood samples were collected on days—2 (beginning), 0 (induction), 4, 6, 12, and 26 for blood biochemistry. At the end of the experiment, rats were sacrificed for brain tissue GLUTs (1 and 3). Data were analyzed using one-way ANOVA with LSD option for mean comparison.

[3] = test system: GLUT-1; test: Cerebral GLUT-1 expression in type-1 diabetes induced rats; format: in vivo, Wistar rats; details: STZ rats, daily for 26 days; control = 100.00
Protocol: as §1, §2

[4] = Body weight of type-1 diabetes induced rats (Example 8); format: in vivo, Wistar rats; details: Example 8, STZ rats, n = 7; for Initial BW: before treatment; for BW Change / Final BW: daily for 26 days
Protocol: as §1, §2

[5] = Glucose pattern before and after injection in type-1 diabetes induced rats; format: in vivo, Wistar rats; details: STZ rats; for Glucose, Day 4, After / Glucose, Day 6, After / Glucose, Day 12, After / Glucose, Day 21, After: after injection; for Glucose, Day 4, After / Glucose, Day 4, Before: no unit in table (mg/dl); for Glucose, Day 6, After / Glucose, Day 12, After / Glucose, Day 21, After / Glucose, Day 6, Before / Glucose, Day 12, Before / Glucose, Day 21, Before: no unit in table; for Glucose, Day 4, Before / Glucose, Day 6, Before / Glucose, Day 12, Before / Glucose, Day 21, Before: before injection
Protocol: as §1, §2

[6] = test system: MRP2 (multidrug resistance protein 2); test: Kidney MRP2 levels in type-1 diabetes induced rats; details: bands, STZ rats, n = 7; control = 100.00
Protocol: as §1, §2

[7] = test system: NFK (nuclear factor kappa B); test: Brain NFK levels in type-1 diabetes induced rats; format: in vivo, Wistar rats; details: bands, STZ rats, n = 7; control = 100.00
Protocol: as §1, §2

[8] = test system: GLUT-3; test: Cerebral GLUT-3 expression in type-1 diabetes induced rats; format: in vivo, Wistar rats; details: STZ rats, daily for 26 days; control = 100.00
Protocol: Forty-two Wistar rats were assigned to one of 6 experimental groups: 1) positive control: rats injected with saline 2) type-1 diabetes group: rats injected with streptozotocin (STZ, 65 mg/kg i.p.) to damage beta cells (n=35). Diabetic rats were then administered with a) none, b) Zn alone (6.23 μg ZnO), c) Cr alone (47.7 μg Cr-histidinate), d) Zn-insulin (6.23 μg ZnO+3 IU Ins/100 g BW), or e) Cr-insulin (47.7 μg Cr-histidinate+3 IU Ins/100 g BW), daily for 26 days (n=7 per subgroup).
At the end of the experiment, rats were sacrificed for brain tissue GLUTs (1 and 3). Data were analyzed using one-way ANOVA with LSD option for mean comparison.

[9] = test system: Tryptophan; test: Brain tryptophan in type-1 diabetes induced rats; format: in vivo, Wistar rats; details: STZ rats, n = 7; footnote: daily for 8 weeks
[10] = test system: NFK (nuclear factor kappa B); test: Kidney NFK levels in type-1 diabetes induced rats; format: in vivo, Wistar rats; details: bands, STZ rats, n = 7; control = 100.00
[11] = test system: insulin; test: Brain insulin levels in type-1 diabetes induced rats; format: in vivo, Wistar rats; details: bands, STZ rats, n = 7; control = 100.00
Protocol: as §1, §2

[12] = Blood biochemistry of type-1 diabetes induced rats at the end of the experiment; format: in vivo, Wistar rats; details: STZ rats, daily for 26 days
Protocol: as §1, §2

[13] = test system: OCT-2; test: Kidney OCT-2 levels in type-1 diabetes induced rats; format: in vivo, Wistar rats; details: bands, STZ rats, n = 7; control = 100.00
[14] = test system: GLUT-3; test: Brain GLUT-3 expression in insulin-induced hypoglycemic rats; details: 15 U insulin/kg i.p., 110 μg/kg/day, one week, mean ± s.d.
Protocol: (§3) In order to evaluate chromium's potential protective effects preventing insulin-induced hypoglycemia, animals were administered insulin to induce hypoglycemia, and markers of hypoglycemic brain damage were compared in animals with and without administration of chromium.
(§4) Briefly, hypoglycemia was induced in Sprague-Dawley rats (males, 8-weeks old) by intraperitoneal injection of 15 U insulin/kg BW. The rats were separated into four groups of 15 rats each: (1) a control group not receiving insulin (“Control”); (2) a group not administered chromium (“Hypo”); (3) a group administered 110 μg/kg/day of chromium picolinate (CrPic); and, a group administered 110 μg/kg/day of chromium histidinate (CrHis). After one week of dosing, brains were removed from the sacrificed rats and analyzed for markers of hypoglycemic damage: GLUT-1; GLUT-3; Nrf2; GFAP; and HNE.

[15] = test system: HNE; test: Hippocampus HNE expression in insulin-induced hypoglycemic rats; details: 15 U insulin/kg i.p., 110 μg/kg/day, one week, mean ± s.d.
Protocol: as §3, §4

[16] = test system: GLUT-1; test: Brain GLUT-1 expression in insulin-induced hypoglycemic rats; details: 15 U insulin/kg i.p., 110 μg/kg/day, one week, mean ± s.d.
Protocol: as §3, §4

[17] = Brain chromium levels in insulin-induced hypoglycemic rats; details: 15 U insulin/kg i.p., 110 μg/kg/day, one week, mean ± s.d.
Protocol: as §3, §4

[18] = test system: GFAP; test: Hippocampus GFAP expression in insulin-induced hypoglycemic rats; details: 15 U insulin/kg i.p., 110 μg/kg/day, one week, mean ± s.d.
Protocol: as §3, §4

[19] = test system: Serotonin; test: Brain serotonin in type-1 diabetes induced rats; format: in vivo, Wistar rats; set-up: unit not given here; details: STZ rats, n = 7; footnote: daily for 8 weeks
[20] = Serum glucose 0.5 hrs after insulin injection in insulin-induced hypoglycemic rats; format: in vivo, Sprague-Dawley rats; details: 15 U insulin/kg i.p., 110 μg/kg/day chromium complex, one week, mean ± s.d.
[21] = test system: Nrf2; test: Hippocampus Nrf2 expression in insulin-induced hypoglycemic rats; details: 15 U insulin/kg i.p., 110 μg/kg/day, one week, mean ± s.d.
Protocol: as §3, §4

**Q.** Which “Kidney oct1” value [1] does the source give for `[O]=[Zn]` [STZ + Zn, zinc oxide] here?
**A.** 50.02 ± 2.05^d

**Q.** And the “Brain Cr” value [2]?
**A.** 9.05 ± 0.56^d ng/g

**Q.** And the “Serum Cr” value [2]?
**A.** 33.65 ± 2.26^d mcg/g

**Q.** What about the “cerebral GLUT-1 expression” value [3] of the same compound?
**A.** 46.82 ± 3.23^c

**Q.** What about the “Initial BW” value [4] of the same compound?
**A.** 195.43 ± 7.63 g

**Q.** What about the “BW Change” value [4] of the same compound?
**A.** −9.71 ± 4.03^bc %

**Q.** What about the “Final BW” value [4] of the same compound?
**A.** 175.71 ± 7.67^bc g

**Q.** What about the “Glucose, Day 4, After” value [5] of the same compound?
**A.** 303

**Q.** What about the “Glucose, Day 6, After” value [5] of the same compound?
**A.** 372

**Q.** And the “Glucose, Day 12, After” value [5]?
**A.** 412

**Q.** And the “Glucose, Day 21, After” value [5]?
**A.** 329

**Q.** What about the “Glucose, Day 4, Before” value [5] of the same compound?
**A.** 457

**Q.** What about the “Glucose, Day 6, Before” value [5] of the same compound?
**A.** 350

**Q.** What about the “Glucose, Day 12, Before” value [5] of the same compound?
**A.** 421

**Q.** What about the “Glucose, Day 21, Before” value [5] of the same compound?
**A.** 380

**Q.** And the “Kidney mrp2” value [6]?
**A.** 148.73 ± 2.74^b

**Q.** What about the Brain nfk [7] of the same compound?
**A.** 150.59 ± 2.73^b

**Q.** And the “cerebral GLUT-3 expression” value [8]?
**A.** 43.41 ± 3.53^c

**Q.** What about the “Brain Tryptophan” value [9] of the same compound?
**A.** 4.54 ± 0.23^d mcg/g

**Q.** What about the Kidney nfk [10] of the same compound?
**A.** 120.31 ± 1.65^b

**Q.** What about the Brain ins [11] of the same compound?
**A.** 44.08 ± 3.31^c

**Q.** What about the ALP [12] of the same compound?
**A.** 453 ± 11^b U/L

**Q.** What about the ALT [12] of the same compound?
**A.** 143 ± 9^b U/L

**Q.** And the AST [12]?
**A.** 328 ± 17^a U/L

**Q.** And the Albumin [12]?
**A.** 2.59 ± 0.06^b g/dL

**Q.** What about the CK [12] of the same compound?
**A.** 6872 ± 1248^b U/L

**Q.** And the Creatinine [12]?
**A.** 1.05 ± 0.07^b mg/dL

**Q.** And the Glucose [12]?
**A.** 456 ± 13^ab mg/dL

**Q.** And the Insulin [12]?
**A.** 20.9 ± 0.9^bc μU/mL

**Q.** What about the K [12] of the same compound?
**A.** 5.53 ± 0.09^b mmol/L

**Q.** What about the LDH [12] of the same compound?
**A.** 2564 ± 85^ab U/L

**Q.** And the Total protein [12]?
**A.** 5.91 ± 0.07^b g/dL

**Q.** And the Urea [12]?
**A.** 65.6 ± 1.0^b mg/dL

**Q.** And the Uric acid [12]?
**A.** 6.49 ± 0.69^ab mg/dL

**Q.** And the “Kidney oct2” value [13]?
**A.** 51.38 ± 1.17^d

**Q.** For chromium histidinate [CrHis], which “Kidney oct1” value [1] is on record?
**A.** 50.90 ± 1.71^d

**Q.** What about the “Cerebellum GLUT-3 Expression” value [14] of the same compound?
**A.** 166.9 ± 2.2 % Control

**Q.** What about the “Cortex GLUT-3 Expression” value [14] of the same compound?
**A.** 287.5 ± 31.3 % Control

**Q.** What about the “Hippocampus GLUT-3 Expression” value [14] of the same compound?
**A.** 177.8 ± 4.7 % Control

**Q.** And the “Brain Cr” value [2]?
**A.** 11.87 ± 0.89^c ng/g

**Q.** What about the “Serum Cr” value [2] of the same compound?
**A.** 48.64 ± 2.70^c mcg/g

**Q.** What about the “cerebral GLUT-1 expression” value [3] of the same compound?
**A.** 53.81 ± 3.53^c

**Q.** And the “Hippocampus HNE Expression” value [15]?
**A.** 140.1 ± 12.0 % Control

**Q.** What about the “Initial BW” value [4] of the same compound?
**A.** 195.43 ± 5.94 g

**Q.** And the “BW Change” value [4]?
**A.** −10.17 ± 3.94^bc %

**Q.** And the “Final BW” value [4]?
**A.** 176.57 ± 12.27^bc g

**Q.** And the “Cerebellum GLUT-1 Expression” value [16]?
**A.** 83.0 ± 4.2 % Control

**Q.** What about the “Cortex GLUT-1 Expression” value [16] of the same compound?
**A.** 99.9 ± 7.3 % Control

**Q.** What about the “Hippocampus GLUT-1 Expression” value [16] of the same compound?
**A.** 103.7 ± 2.8 % Control

**Q.** And the “Glucose, Day 4, After” value [5]?
**A.** 237

**Q.** And the “Glucose, Day 6, After” value [5]?
**A.** 349

**Q.** What about the “Glucose, Day 12, After” value [5] of the same compound?
**A.** 349

**Q.** What about the “Glucose, Day 21, After” value [5] of the same compound?
**A.** 303

**Q.** What about the “Glucose, Day 4, Before” value [5] of the same compound?
**A.** 403

**Q.** What about the “Glucose, Day 6, Before” value [5] of the same compound?
**A.** 330

**Q.** And the “Glucose, Day 12, Before” value [5]?
**A.** 340

**Q.** What about the “Glucose, Day 21, Before” value [5] of the same compound?
**A.** 368

**Q.** And the “Kidney mrp2” value [6]?
**A.** 140.21 ± 2.05^b

**Q.** And the Brain nfk [7]?
**A.** 134.24 ± 4.10^b

**Q.** What about the “cerebral GLUT-3 expression” value [8] of the same compound?
**A.** 49.41 ± 2.39^c

**Q.** What about the “Brain Tryptophan” value [9] of the same compound?
**A.** 4.74 ± 0.36^d mcg/g

**Q.** And the “Brain Cr Levels” value [17]?
**A.** 21.6 ± 1.7 ng/g

**Q.** What about the Kidney nfk [10] of the same compound?
**A.** 118.86 ± 1.47^b

**Q.** And the Brain ins [11]?
**A.** 47.89 ± 4.67^c

**Q.** What about the ALP [12] of the same compound?
**A.** 442 ± 13^bc U/L

**Q.** And the ALT [12]?
**A.** 125 ± 12^bc U/L

**Q.** And the AST [12]?
**A.** 291 ± 24^ab U/L

**Q.** And the Albumin [12]?
**A.** 2.74 ± 0.06^ab g/dL

**Q.** And the CK [12]?
**A.** 6745 ± 934^b U/L

**Q.** And the Creatinine [12]?
**A.** 0.90 ± 0.08^bc mg/dL

**Q.** And the Glucose [12]?
**A.** 423 ± 15^bc mg/dL

**Q.** And the Insulin [12]?
**A.** 22.0 ± 0.8^bc μU/mL

**Q.** What about the K [12] of the same compound?
**A.** 5.57 ± 0.12^b mmol/L

**Q.** And the LDH [12]?
**A.** 2367 ± 52^b U/L

**Q.** And the Total protein [12]?
**A.** 6.07 ± 0.12^b g/dL

**Q.** What about the Urea [12] of the same compound?
**A.** 62.1 ± 2.5^bc mg/dL

**Q.** And the Uric acid [12]?
**A.** 6.21 ± 0.57^b mg/dL

**Q.** And the “Hippocampus GFAP Expression” value [18]?
**A.** 204.9 ± 4.9 % Control

**Q.** What about the “Brain Serotonin” value [19] of the same compound?
**A.** 512 ± 7

**Q.** What about the “Kidney oct2” value [13] of the same compound?
**A.** 53.50 ± 1.13^d

**Q.** What about the “Serum Glucose at 0.5 hrs” value [20] of the same compound?
**A.** 42.6 ± 6.8 mg/dL

**Q.** And the “Hippocampus Nrf2 Expression” value [21]?
**A.** 61.8 ± 1.4 % Control

**Q.** For chromium picolinate [CrPic], which “Cerebellum GLUT-3 Expression” value [14] is on record?
**A.** 206.3 ± 6.4 % Control

**Q.** And the “Cortex GLUT-3 Expression” value [14]?
**A.** 319.5 ± 14.6 % Control

**Q.** And the “Hippocampus GLUT-3 Expression” value [14]?
**A.** 198.6 ± 8.9 % Control

**Q.** And the “Hippocampus HNE Expression” value [15]?
**A.** 162.5 ± 12.4 % Control

**Q.** And the “Cerebellum GLUT-1 Expression” value [16]?
**A.** 75.6 ± 7.6 % Control

**Q.** And the “Cortex GLUT-1 Expression” value [16]?
**A.** 122.8 ± 1.3 % Control

**Q.** What about the “Hippocampus GLUT-1 Expression” value [16] of the same compound?
**A.** 102.3 ± 5.5 % Control

**Q.** What about the “Hippocampus GFAP Expression” value [18] of the same compound?
**A.** 251.2 ± 9.1 % Control

**Q.** And the “Serum Glucose at 0.5 hrs” value [20]?
**A.** 40.7 ± 5.2 mg/dL

**Q.** What about the “Hippocampus Nrf2 Expression” value [21] of the same compound?
**A.** 38.9 ± 3.6 % Control
